Source: patent publication US11718612B2, “Inhibitors of receptor interacting protein kinase I for the treatment of disease” (Board of Regents, The University of Texas System, priority 2019, dated 2023)

What was measured:
RIPK1 = RIPK1 (Homo sapiens (Human), UniProt Q13546); test: ADP-Glo kinase assay, RIPK1 activity; type: biochemical; details: 5 nM RIPK1, 50 μM ATP, 6 hr reaction
Experimental: In order to measure RIPK1 activity the ADP-Glo kinase assay (Promega, Catalog #V7002) was used to measure the conversion of ATP to ADP. This enzymatic assay was performed in a 384-well white, Optiplate (Perkin Elmer, Catalog #6007299) with assay buffer consisting of 50 mM HEPES pH 7.5 (Gibco, Catalog #15630-080), 50 mM NaCl (Teknova, Catalog #S0252), 30 mM MgCl2 (Ambion, Catalog #AM9530G), 1 mM DTT (Santa Cruz Biotechnology, Catalog #sc-29089), 0.05% BSA (Sigma, Catalog #A3059-50G) and 0.02% CHAPS (Sigma, Catalog #C5070-5G). Stock solutions of the test compounds were prepared in 100% DMSO (Sigma, Catalog #D2650) and serially diluted 1:3 using 100% DMSO. Compounds were additionally diluted 1:40 in assay buffer, and 2 μL/well were transferred to the assay plate. 4 μL/well (final concentration of 5 nM) of RIPK1 protein (SignalChem, Catalog #R07-11G-05) diluted in assay buffer and added to the assay plate followed by a 10 minute preincutation at room temperature. 4 μL/well of ATP (Promega, Catalog #V7002) (final concentration of 50 μM) diluted in assay buffer were then added to the assay plate followed by a 6 hr reaction time. Final concentrations of RIPK1 and ATP refer to a 10 μL volume. Luminescence was measured using a BioTek Synergy™ NEO plate reader. IC50 values were calculated using a four-parameter logistic curve fit using Genedata Screener software.

U937 cells = test: Human U937 cellular necroptosis assay; type: cell-based; details: U-937; U937 cells stimulated with 25 ng/mL human TNFalpha and 25 μM z-VAD-FMK; 22 hr; Cell Titer-Glo viability
Experimental: Human U937 Cellular Necroptosis Assay
The human monocytic cell line U937 (CRL-1593.2) may be purchased from ATCC. The cells are routinely maintained in RPMI-1640 Medium (Gibco, Catalog #11875-093) supplemented with 10% heat inactivated fetal bovine serum (Gibco, Catalog #16140-071), 100 units/mL penicillin and 100 μg/mL streptomycin (Gibco, Catalog #15140-122), in a humidified incubator (37° C., 5% CO2). For the assay, cells are resuspended in RPMI-1640 phenol red free Media (Gibco, Catalog #11835-030) supplemented with 10% fetal bovine serum (Sigma, Catalog #F2442), 100 units/mL penicillin and 100 ug/mL streptomycin. […] Stock solutions of the test compounds are prepared in 100% DMSO (Sigma, Catalog #D2650) and serially diluted 1:3 using 100% DMSO. Compounds are additionally diluted 1:40 in assay medium, and 10 μL/well was transferred to the plate. Following the compound addition, the plate is incubated at 37° C. and 5% CO2 for 22 hr. After 22 hr, viability is assessed with the addition of 20 μL of Cell Titer-Glo 2.0 (Promega, Catalog #G9243). The tissue culture plate is shaken on an orbital shaker at 300 RPM for 15 minutes at room temperature in the dark. Luminescence is measured using a PerkinElmer Envision™ plate reader. IC50 values are calculated using a four-parameter logistic curve fit using Genedata Screener software.

Chain of RIPK1 (Q13546 1-327): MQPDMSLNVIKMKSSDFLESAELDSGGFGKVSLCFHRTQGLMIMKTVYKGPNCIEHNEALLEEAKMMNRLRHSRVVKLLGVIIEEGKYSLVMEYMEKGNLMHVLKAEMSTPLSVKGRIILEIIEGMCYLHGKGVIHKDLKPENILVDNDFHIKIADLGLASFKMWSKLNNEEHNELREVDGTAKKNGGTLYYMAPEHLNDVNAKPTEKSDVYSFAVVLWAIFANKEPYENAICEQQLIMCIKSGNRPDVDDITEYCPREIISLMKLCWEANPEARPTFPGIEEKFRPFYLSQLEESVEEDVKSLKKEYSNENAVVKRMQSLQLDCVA

Structure (SMILES): Cc1nc(C(=O)Nc2cccc(Cl)c2F)nn1Cc1cnccn1 [Example 4, N-(3-Chloro-2-fluoro-phenyl)-5-methyl-1-(pyrazin-2-ylmethyl)-1,2,4-triazole-3-carboxamide]
- IC50 (RIPK1): 0.11 µM
- IC50 (U937 cells): 1430 nM

Structure (SMILES): O=C(Nc1cccc(Cl)c1F)c1n[nH]c(Cc2ccccc2)n1 [Example 9, 5-benzyl-N-(3-chloro-2-fluoro-phenyl)-1H-1,2,4-triazole-3-carboxamide]
- IC50 (RIPK1): 0.245 µM
- IC50 (U937 cells): 6300 nM

Structure (SMILES): Cn1nc(C(=O)Nc2cccc(Cl)c2F)nc1Cc1ccccc1 [Example 10, 5-Benzyl-N-(3-chloro-2-fluoro-phenyl)-1-methyl-1,2,4-triazole-3-carboxamide]
- IC50 (RIPK1): 0.702 µM
- IC50 (U937 cells): 9220 nM

Structure (SMILES): Cn1cc(-c2cc(F)c(F)c(NC(=O)c3n[nH]c(Cc4ccccc4)n3)c2)cn1 [Example 11, 5-Benzyl-N-(2,3-difluoro-5-(1-methyl-1H-pyrazol-4-yl)-phenyl)-1H-1,2,4-triazole-3-carboxamide]
- IC50 (RIPK1): 4.06 µM
- IC50 (U937 cells): > 10000 nM

Structure (SMILES): O=C(Nc1cccc(Cl)c1F)c1ncn(Cc2ccccc2F)n1 [Example 12, N-(3-chloro-2-fluorophenyl)-1-(2-fluorobenzyl)-1H-1,2,4-triazole-3-carboxamide]
- IC50 (RIPK1): 0.0186 µM
- IC50 (U937 cells): 657 nM

Structure (SMILES): Cc1nc(C(=O)Nc2cccc(Cl)c2F)nn1Cc1ccccc1 [Example 13, 1-benzyl-N-(3-chloro-2-fluorophenyl)-5-methyl-1H-1,2,4-triazole-3-carboxamide]
- IC50 (RIPK1): 0.0419 µM
- IC50 (U937 cells): 1270 nM

Structure (SMILES): O=C(Nc1cccc(Cl)c1F)c1nnc(Cc2ccccc2)o1 [Example 19, 5-Benzyl-N-(3-chloro-2-fluorophenyl)-1,3,4-oxadiazole-2-carboxamide]
- IC50 (RIPK1): 1.01 µM
- IC50 (U937 cells): > 10000 nM

Structure (SMILES): O=C(Nc1ccccc1F)c1n[nH]c(Cc2ccccc2)n1 [Example 20, 5-benzyl-N-(2-fluorophenyl)-1H-1,2,4-triazole-3-carboxamide]
- IC50 (RIPK1): 0.521 µM
- IC50 (U937 cells): 6230 nM

Structure (SMILES): O=C(Nc1cccc(Cl)c1)c1n[nH]c(Cc2ccccc2)n1 [Example 21, 5-benzyl-N-(3-chlorophenyl)-1H-1,2,4-triazole-3-carboxamide]
- IC50 (RIPK1): 0.854 µM
- IC50 (U937 cells): > 10000 nM

Structure (SMILES): O=C(Nc1cccc(F)c1F)c1n[nH]c(Cc2ccccc2)n1 [Example 22, 5-benzyl-N-(2,3-difluorophenyl)-1H-1,2,4-triazole-3-carboxamide]
- IC50 (RIPK1): 1.57 µM
- IC50 (U937 cells): > 10000 nM

Structure (SMILES): O=C(Nc1cc(F)cc(F)c1F)c1n[nH]c(Cc2ccccc2)n1 [Example 23, 5-benzyl-N-(2,3,5-trifluorophenyl)-1H-1,2,4-triazole-3-carboxamide]
- IC50 (RIPK1): 2.25 µM
- IC50 (U937 cells): > 10000 nM

Structure (SMILES): O=C(Nc1cc(Cl)cc(Cl)c1)c1n[nH]c(Cc2ccccc2)n1 [Example 24, 5-benzyl-N-(3,5-dichlorophenyl)-1H-1,2,4-triazole-3-carboxamide]
- IC50 (RIPK1): 3.36 µM
- IC50 (U937 cells): > 10000 nM

Structure (SMILES): Cn1cc(-c2cc(Cl)c(F)c(NC(=O)c3n[nH]c(Cc4ccccc4)n3)c2)cn1 [Example 25, 5-benzyl-N-(3-chloro-2-fluoro-5-(1-methyl-1H-pyrazol-4-yl)phenyl)-1H-1,2,4-triazole-3-carboxamide]
- IC50 (RIPK1): 4.35 µM
- IC50 (U937 cells): 10000 nM

Structure (SMILES): O=C(Nc1cccc(Cl)c1F)c1ncn(Cc2ccccc2)n1 [Example 27, 1-benzyl-N-(3-chloro-2-fluorophenyl)-1H-1,2,4-triazole-3-carboxamide]
- IC50 (RIPK1): 0.0306 µM
- IC50 (U937 cells): 851 nM

Structure (SMILES): O=C(Nc1ccc(F)c(Cl)c1F)c1ncn(Cc2ccccc2)n1 [Example 28, 1-benzyl-N-(3-chloro-2,4-difluorophenyl)-1H-1,2,4-triazole-3-carboxamide]
- IC50 (RIPK1): 0.0403 µM
- IC50 (U937 cells): 1470 nM

Structure (SMILES): N#Cc1cccc(Cn2cnc(C(=O)Nc3cccc(Cl)c3F)n2)c1 [Example 29, N-(3-chloro-2-fluorophenyl)-1-(3-cyanobenzyl)-1H-1,2,4-triazole-3-carboxamide]
- IC50 (RIPK1): 0.0341 µM
- IC50 (U937 cells): 356 nM

Structure (SMILES): COc1ccc(NC(=O)c2ncn(Cc3ccccc3)n2)c(F)c1Cl [Example 30, 1-benzyl-N-(3-chloro-2-fluoro-4-methoxy-phenyl)-1H-1,2,4-triazole-3-carboxamide]
- IC50 (RIPK1): 0.11 µM
- IC50 (U937 cells): 1490 nM

Structure (SMILES): O=C(Nc1ccc(O)c(Cl)c1F)c1ncn(Cc2ccccc2)n1 [Example 31, 1-benzyl-N-(3-chloro-2-fluoro-4-hydroxy-phenyl)-1H-1,2,4-triazole-3-carboxamide]
- IC50 (RIPK1): 0.16 µM
- IC50 (U937 cells): 1700 nM

Structure (SMILES): O=C(Nc1cccc(Cl)c1F)c1ncn(Cc2cnccn2)n1 [Example 32, N-(3-chloro-2-fluoro-phenyl)-1-(pyrazin-2-ylmethyl)-1H-1,2,4-triazole-3-carboxamide]
- IC50 (RIPK1): 0.257 µM
- IC50 (U937 cells): 1920 nM

Structure (SMILES): N#Cc1ccc(Cn2cnc(C(=O)Nc3cccc(Cl)c3F)n2)cc1 [Example 33, N-(3-chloro-2-fluoro-phenyl)-1-(4-cyano-benzyl)-1H-1,2,4-triazole-3-carboxamide]
- IC50 (RIPK1): 0.389 µM
- IC50 (U937 cells): 5420 nM

Structure (SMILES): N#Cc1cc(Cl)c(F)c(NC(=O)c2ncn(Cc3ccccc3)n2)c1 [Example 35, 1-benzyl-N-(3-chloro-5-cyano-2-fluorophenyl)-1H-1,2,4-triazole-3-carboxamide]
- IC50 (RIPK1): 0.703 µM
- IC50 (U937 cells): 7290 nM

Structure (SMILES): Cn1cc(-c2cc(Cl)c(F)c(NC(=O)c3ncn(Cc4ccccc4)n3)c2)cn1 [Example 36, 1-benzyl-N-(3-chloro-2-fluoro-5-(1-methyl-1H-pyrazol-4-yl)phenyl)-1H-1,2,4-triazole-3-carboxamide]
- IC50 (RIPK1): 0.804 µM
- IC50 (U937 cells): 10000 nM

Structure (SMILES): O=C(Nc1cccc(Cl)c1F)c1nc2n(n1)[C@H](c1ccccc1)C[C@@H]2F [Example 47, (5S,7S)—N-(3-chloro-2-fluorophenyl)-7-fluoro-5-phenyl-6,7-dihydro-5H-pyrrolo[1,2-b][1,2,4]triazole-2-carboxamide]
- IC50 (RIPK1): 0.0484 µM
- IC50 (U937 cells): 24.8 nM

Structure (SMILES): O=C1c2nn(Cc3cc(F)ccc3F)c(Cl)c2CCN1c1cccc(Cl)c1F [Example 50, 3-Chloro-6-(3-chloro-2-fluorophenyl)-2-(2,5-difluorobenzyl)-5,6-dihydro-2H-pyrazolo[3,4-c]pyridin-7(4H)-one]
- IC50 (RIPK1): 0.0186 µM
- IC50 (U937 cells): 42.5 nM

Structure (SMILES): O=C(Nc1ccc(OC(F)(F)F)cc1F)c1ncn(Cc2ccccc2)n1 [Example 51, 1-benzyl-N-(2-fluoro-4-(trifluoromethoxy)-phenyl)-1H-1,2,4-triazole-3-carboxamide]
- IC50 (RIPK1): 0.807 µM
- IC50 (U937 cells): 8240 nM

Structure (SMILES): Cc1nc(C(=O)Nc2ccc(OC(F)(F)F)cc2)nn1Cc1ccccc1 [Example 52, 1-benzyl-5-methyl-N-(4-(trifluoromethoxy)-phenyl)-1H-1,2,4-triazole-3-carboxamide]
- IC50 (RIPK1): 4.62 µM
- IC50 (U937 cells): > 10000 nM

Structure (SMILES): O=C1c2nn(Cc3cncc(F)c3)c(Cl)c2CCN1c1cccc(Cl)c1F [Example 54, 3-Chloro-6-(3-chloro-2-fluorophenyl)-2-((5-fluoropyridin-3-yl)methyl)-5,6-dihydro-2H-pyrazolo[3,4-c]pyridin-7(4H)-one]
- IC50 (RIPK1): 0.131 µM
- IC50 (U937 cells): 128 nM

Structure (SMILES): COc1c2c(nn1Cc1cc(F)ccc1F)C(=O)N(c1cccc(Cl)c1F)CC2 [Example 57, 6-(3-Chloro-2-fluorophenyl)-2-(2,5-difluorobenzyl)-3-methoxy-5,6-dihydro-2H-pyrazolo[3,4-c]pyridin-7(4H)-one]
- IC50 (RIPK1): 0.022 µM
- IC50 (U937 cells): 115 nM

Structure (SMILES): NC(=O)c1cccc(Cn2nc3c(c2Cl)CCN(c2cccc(Cl)c2F)C3=O)c1 [Example 75, 3-((3-chloro-6-(3-chloro-2-fluorophenyl)-7-oxo-4,5,6,7-tetrahydro-2H-pyrazolo[3,4-c]pyridin-2-yl)methyl)benzamide]
- IC50 (RIPK1): 0.297 µM
- IC50 (U937 cells): 1160 nM

Structure (SMILES): Cc1ccc(Cn2cnc(C(=O)Nc3cccc(Cl)c3F)n2)cc1 [Example 86, N-(3-chloro-2-fluorophenyl)-1-(4-methylbenzyl)-1H-1,2,4-triazole-3-carboxamide]
- IC50 (RIPK1): 0.564 µM
- IC50 (U937 cells): 2080 nM

Structure (SMILES): Cc1ccc(Cn2cnc(C(=O)Nc3cccc(Cl)c3F)n2)cc1F [Example 87, N-(3-chloro-2-fluorophenyl)-1-(3-fluoro-4-methylbenzyl)-1H-1,2,4-triazole-3-carboxamide]
- IC50 (RIPK1): 0.0322 µM
- IC50 (U937 cells): 4300 nM
